Source: US20080188654A1, “Compounds for treatment of inflammation, diabetes and related disorders” (Theracos, Inc., priority 2001, published 2008)

Legend:
[1] = test system: 3T3-L1 differentiated adipocytes; experiment: Glucose uptake in 3T3-L1 adipocytes (14C-deoxyglucose); assay type: cell-based, mouse; settings: different concentrations, 48 hours; percentage of basal; FIG. 1
3T3-L1 adipocytes = experiment: Insulin-stimulated glucose uptake in 3T3-L1 adipocytes; assay type: cell-based, mouse; settings: 5 μM, 48 hours; compared to vehicle; FIG. 2
ob/ob mice [2] = experiment: Glucose-lowering effect in ob/ob mice; assay type: in vivo, mouse; settings: 10 mg/kg daily oral, p<0.05
ob/ob mice [3] = experiment: Lipid-lowering effects in ob/ob mice; assay type: in vivo, mouse; settings: 10 mg/kg daily oral, day 8, versus vehicle, p<0.05
TNF-alpha [4] = experiment: Inhibition of LPS-induced TNF-alpha production in RAW264.7 cells (ELISA); assay type: cell-based, mouse
IL-1 beta = experiment: Inhibition of LPS-induced IL-1 beta production in RAW264.7 cells (ELISA); assay type: cell-based, mouse
IL-6 = experiment: Inhibition of LPS-induced IL-6 production in RAW264.7 cells (ELISA); assay type: cell-based, mouse
iNOS = experiment: Inhibition of LPS-induced iNOS production in RAW264.7 cells (Western blot); assay type: cell-based, mouse; settings: 10, 30 or 100 μM; FIG. 8
COX-2 = experiment: Inhibition of LPS-induced COX-2 production in RAW264.7 cells (Western blot); assay type: cell-based, mouse; settings: LPS-stimulated cells; FIG. 8
COX-1 = COX-1 production in LPS-stimulated RAW264.7 cells (Western blot); assay type: cell-based, mouse; settings: FIG. 8
TNF-alpha [5] = experiment: Inhibition of LPS-induced TNF-alpha release by human monocytes; assay type: cell-based; settings: Monocyte, read-out: Percent Inhibition of TNF-alpha Release
[6] = test system: human elutriated monocytes; experiment: Cell viability of human monocytes (MTS/PMS assay); assay type: cell-based; settings: 30 μM, 20 h

| Compound | glucose uptake [1] | stimulation of glucose uptake by insulin (3T3-L1 adipocytes) | decrease in blood glucose levels (ob/ob mice [2]; day 6, versus vehicle) [%] | decrease in blood glucose levels (ob/ob mice [2]; day 8, versus vehicle) [%] | free fatty acids lower (ob/ob mice [3]) [%] | serum triglycerides lower (ob/ob mice [3]) [%] | inhibition of LPS-induced TNF-alpha production (TNF-alpha [4]; 10, 30 or 100 μM, FIG. 5) | inhibitory effect on TNF-alpha compared with dexamethasone (TNF-alpha [4]; versus 1 μM dexamethasone) | inhibition of LPS-induced IL-1 beta production (IL-1 beta; 10, 30 or 100 μM, FIG. 6) | inhibition of IL-1 beta compared with dexamethasone (IL-1 beta; versus 1 μM dexamethasone) | inhibition of LPS-induced IL-6 production (IL-6; 10, 30 or 100 μM, FIG. 7) | inhibitory effect on IL-6 compared with dexamethasone (IL-6; versus 1 μM dexamethasone) | inhibition of LPS-induced iNOS production (iNOS) | inhibition of COX-2 production (COX-2) | inhibition of COX-1 production (COX-1) | inhibition at 3 µM (TNF-alpha [5]; 3.0 μM) [%] | inhibition at 10 µM (TNF-alpha [5]; 10 μM) [%] | Cell viability [6] |
| --- | --- | --- | --- | --- | --- | --- | --- | --- | --- | --- | --- | --- | --- | --- | --- | --- | --- | --- |
| COC(=O)C(=Cc1cc(OC)cc(OC)c1)c1ccc(Oc2ccc(CCC(=O)NC(N)=O)cc2)cc1 [Compound 1, 3-(3,5-dimethoxyphenyl)-2-{4-[4-(3-oxo-3-ureidopropyl)-phenoxy]-phenyl}-acrylic acid methyl ester] | dose-dependent increase in glucose uptake | enhanced the stimulation of glucose uptake by insulin | 36 | 23 | 19 | 49 | significantly inhibited | approached that seen with dexamethasone | significantly inhibited | of the same approximate magnitude as that seen with dexamethasone | significantly inhibited | greater than that observed with dexamethasone | dose-dependent inhibition | selectively inhibited production of COX-2 | not COX-1 |  |  |  |
| COc1cc(/C=C(/C(=O)N2CCCCC2)c2ccc(Oc3ccc(CCC(=O)NC(N)=O)cc3)cc2)cc(OC)c1 [Compound 51, [3-(4-{4-[2-(3,5-dimethoxyphenyl)-1-(piperidine-1-carbonyl)-vinyl]-phenoxy}-phenyl)-propionyl]-urea] |  |  |  |  |  |  |  |  |  |  |  |  |  |  |  | 25 | 57 | * (Cell viability <70%) |
